Assay results published in US20100280120A1, “COMPOUND INDUCING ANGIOGENESIS RESPONSE IN ISCHAEMIC TISSUES” (Green Cross Therapeutics Private Limited, priority 2007, published 2010).

Key:
[1] = test system: binding of human VEGF to its receptor on A549 cells; assay: Angiogenic potential: binding of human VEGF to its receptors on A549 cells (anti-VEGF immunofluorescence, confocal); assay type: cell-based
Protocol: The angiogenic potential of compound was tested by binding human VEGF to its putative receptors. Human lung epithelial cells (A549 which are highly metastatic and therefore angiogenic in nature) were grown on coverslip in DMEM/F-12 (1:1) or RPMI 1640 media supplemented with 10% FBS, insulin (0.1 units/ml), L-glutamine (2 mM), sodium pyruvate (100 μg/ml), non-essential amino acids (100 μM), penicillin (100 units/ml) and streptomycin ([…]). Cells were incubated at 37° C. in a humidified atmosphere of 5% CO2. The pH of the medium was maintained at 6.2 for the binding assay of VEGF to its receptor in the presence of compound. The cells were pre-treated with media alone or with 25 μg/ml compound for 30 min. The cells were then incubated with 10 ng/ml human VEGF for further 30 min at 37° C. in a humidified atmosphere of 5% CO2. The cells were fixed and stained with anti-VEGF antibody coupled with Alexaflour 488. The cells were visualized in Zeiss-confocal microscope.

[2] = test system: primary cells or cell lines from various origin (human cell lines); assay: In vitro toxicity screening of primary cells or cell lines, Trypan blue-exclusion viability test; assay type: cell-based
Protocol: To study the toxic effects of compound, a wide spectrum of primary cells or cell lines from various origin were screened for viability, using Trypan blue-exclusion test. Cells were grown in cultures in DMEM/F-12 (1:1) or RPMI 1640 media supplemented with 10% FBS, insulin (0.1 units/ml), L-glutamine (2 mM), sodium pyruvate (100 μg/ml), non-essential amino acids (100 μM), penicillin (100 units/ml) and streptomycin ([…]). Cells were incubated at 37° C. in a humidified atmosphere of 5% CO2.
Different cells from different origins were cultured in vitro. Various doses of GC-S were added in culture medium. After 24 h number of surviving cells was counted. Each experiment was performed in triplicate and the values agreed well with those of independent experiments

Swiss albino mice = assay: Systemic toxicity in mice: serum toxicity marker enzymes (GOT, GPT, ALP); settings: doxorubicin 5 mg/kg body weight
Protocol: All animal experiments were performed following ‘Principles of laboratory animal care’ (NIH publication No. 85-23, revised in 1985) as well as specific Indian laws on ‘Protection of Animals’ under the provision o authorized investigators. Swiss albino mice (˜20 g each; 10-12 weeks old; 3 mice in each group) were randomly divided into (i) untreated set (i.v. injected with PBS as vehicle only) and (ii) drug-treated set (Compound of this invention 0.1, 0.3, 1.0, 3.0, 10 and 30 mg/kg body weight) for 14 days. Untreated mice received sterile PBS as carrier vehicle. Doxorubicin (5 mg/kg body weight) was used as positive control for toxicity assays.
For statistical analysis, one-way analysis of variance (ANOVA) was conducted, followed by the Newman-Keuls multiple comparison test. Mean differences with p<0.05 were considered statistically significant.
Hepato and cardio toxicity due to drug regimens are the shortfall in many instances. The serum levels of GOT, GPT and ALP are clinical indicators of drug-induced toxicity. Blood samples were collected from the retro-orbital plexus of normal and the subject compound-treated mice. Total serum glutamate oxaloacetate transaminase ([…]), glutamate pyruvate transaminase (SGPT), and alkaline phosphate were assayed according to standard protocols.
Serum GOT, GPT and ALP activities as a marker of systemic toxicity were measured from blood of untreated or treated mice.

SMILES | Increase of binding of VEGF to its receptor ([1]; A549 cells pre-incubated with 25 μg/ml compound 30 min, then 10 ng/ml human VEGF 30 min, pH 6.2) | VEGF binding on the membrane of normal A549 cell after compound treatment ([1]; A549 cells, compound alone, no added VEGF) | Toxicity to cells ([2]; 100 and 200 μg/mL doses, below significant killing) | Toxic effects on cells ([2]; doses 12.5 to 200 μg/mL range) | Percent of cell killing ([2]; up to 50 μg/mL doses, 24 h, Trypan blue exclusion) | ALP (Swiss albino mice) [KA units] | SGOT (Swiss albino mice) [IU/dL] | SGPT (Swiss albino mice) [IU/dL] | Levels of serum GOT and GPT (Swiss albino mice; positive control, p<0.05)
NCCCCC(N)C(=O)O (stereo not drawn) [Compound of this invention] | 10-15 times | remains unaltered | mild toxicity | no toxic effects | less than 5% | – | – | – | –
COc1cccc2c1C(=O)c1c(O)c3c(c(O)c1C2=O)C[C@@](O)(C(=O)CO)C[C@@H]3O[C@H]1C[C@H](N)[C@H](O)[C@H](C)O1 [Doxorubicin] | – | – | – | – | – | 43 | 79 | 68 | significantly increased
